According to US20220249441A1, “Homodimeric Tobramycin Adjuvant Repurposes Novobiocin as an Effective Antibacterial Agent Against Gram-Negative Bacteria” (priority 2019, published 2022):
≈ marks a conversion by molar mass, not a printed value.

How the values were obtained:
[1] = test system: P. aeruginosa; test: Checkerboard assay (antibiotic + adjuvant combination MIC); assay type: cell-based, Pseudomonas aeruginosa; settings: for MIC Alone / potentiation of novobiocin: P. aeruginosa PAO1; for MIC Alone: β-lactam antibiotic alone
Description: (§1) Antimicrobial Susceptibility Assay. The in vitro antimicrobial activity of all compounds/antibiotics against a panel of bacteria was evaluated by microbroth dilution method in accordance with the Clinical and Laboratory Standards Institute (CLSI) guidelines (using ATCC strains as quality control strains) (54). Overnight grown bacterial cultures were diluted in saline to achieve a 0.5 McFarland turbidity, followed by 1:50 dilution in Mueller-Hinton broth (MHB) for inoculation to a final concentration of approximately 5×10^5 CFU/mL. […] The lowest concentration that prevented the visible growth of bacteria was defined as the MIC for each antimicrobial agent. The broth with or without bacterial cells was used as positive or negative control, respectively.
Checkerboard Assay. Combination studies with different antibiotics were performed in 96-well plates as previously described (19). Briefly, the antibiotic of interest was serially diluted in MHB along the abscissa while the adjuvant (tobramycin homodimer) was serially diluted in MHB along the ordinate. This creates a 10×7 matrices wherein each well consists of a combination of different antibiotic and adjuvant concentrations. Overnight grown bacterial cultures were diluted in saline to achieve a 0.5 McFarland turbidity, followed by 1:50 dilution in Mueller-Hinton broth (MHB) for inoculation to a final concentration of approximately 5×10^5 CFU/mL. […] MIC was recorded as wells with the lowest concentration of drugs with no bacterial growth. The fractional inhibitory concentration (FIC) for each antibiotic was calculated by dividing the MIC of the antibiotic in the presence of adjuvant by the MIC of the antibiotic alone. Similarly, the FIC of adjuvant was calculated by dividing the MIC of the adjuvant in the presence of antibiotic by the MIC of the adjuvant alone. FIC index is the sum of both FICs. FIC indices of ≤0.5 were deemed synergistic; >0.5-4, no interaction; and >4, antagonistic.

[2] = test system: A. baumannii ATCC 17978 and resistant mutants; test: microbe, parasite or virus in culture; assay type: cell-based, Acinetobacter baumannii; settings: Acinetobacter baumannii
Description: as §1
Development of Resistance Study. […] Tobramycin and colistin were included as controls. At 24-hour intervals, the cultures were assessed for growth. […] This serial passaging was repeated for 8 days.

[3] = ATCC17978, 18 h, Mutant C (seven serial passages, sub-MICs novobiocin + 7.1 μM compound 1)
[4] = ATCC17978, Mutant A (seven serial passages, sub-MICs novobiocin)
[5] = ATCC17978, Mutant B (seven serial passages, sub-MICs colistin)
[6] = ATCC17978, Wild-type A. baumannii ATCC 17978

`C[C@H]1[C@H](NC(=O)/C(=N\OC(C)(C)C(=O)O)c2csc(N)n2)C(=O)N1S(=O)(=O)O` [Aztreonam, reference compound] gave an MIC Alone [1] of 4 µg/mL, an MIC of ATM alone ([1]; PA 259-96918) of 32 µg/mL and an MIC of ATM alone ([1]; PA 260-97103) of 64 µg/mL. For the same compound, the MIC of ATM alone ([1]; PA 262-101856) was 32 µg/mL, the MIC of ATM alone ([1]; PA 264-104354) was 32 µg/mL and the MIC of ATM alone ([1]; PA 86052) was 64 µg/mL. It also gave an MIC of ATM alone ([1]; PA 88949) of 32 µg/mL, an MIC of ATM alone ([1]; PA 91433) of 16 µg/mL and an MIC of ATM alone ([1]; PA 100036) of 16 µg/mL. For the same compound, the MIC of ATM alone ([1]; PA 101243) was 32 µg/mL, the MIC of ATM alone ([1]; PA 101885) was 16 µg/mL and the MIC of ATM alone ([1]; PA 107092) was 64 µg/mL. For the same compound, the MIC of ATM alone ([1]; PA 108590) was 32 µg/mL, the MIC of ATM alone ([1]; PA 109084) was 64 µg/mL and the MIC of ATM alone ([1]; PA 114228) was 32 µg/mL. For the same compound, the MIC of ATM alone ([1]; PAO1) was 4 µg/mL.

`O=C(N[C@H](CO)[C@H](O)c1ccc([N+](=O)[O-])cc1)C(Cl)Cl` [Chloramphenicol] showed an MIC [2, 3] of 64 µg/mL, an MIC [2, 4] of 32 µg/mL (≈ 99 µM) and an MIC [2, 5] of 8 µg/mL (≈ 24.8 µM). It also gave an MIC [2, 6] of 64 µg/mL (≈ 198 µM).

With `C#CCCCCO[C@@H]1[C@@H](O[C@H]2O[C@H](CO)[C@@H](O)[C@H](N)[C@H]2O)[C@H](N)C[C@H](N)[C@H]1O[C@H]1O[C@H](CN)[C@@H](O)C[C@H]1N.O=C(O)C(F)(F)F.O=C(O)C(F)(F)F.O=C(O)C(F)(F)F.O=C(O)C(F)(F)F.O=C(O)C(F)(F)F` [Compound 4, 5-O-(Hexyne)-Tobramycin] the potentiation of novobiocin [1] was “did not potentiate”.

For `[N-]=[N+]=NCCCCO[C@@H]1[C@@H](O[C@H]2O[C@H](CO)[C@@H](O)[C@H](N)[C@H]2O)[C@H](N)C[C@H](N)[C@H]1O[C@H]1O[C@H](CN)[C@@H](O)C[C@H]1N` [Compound 5, 5-O-(4-Azidobutyl)-Tobramycin], the potentiation of novobiocin [1] was “did not potentiate”.

`CC(C)(C)OC(=O)NC[C@H]1O[C@H](O[C@H]2[C@H](OCCCCc3cn(CCCCO[C@@H]4[C@@H](O[C@H]5O[C@H](CO)[C@@H](O)[C@H](NC(=O)OC(C)(C)C)[C@H]5O)[C@H](NC(=O)OC(C)(C)C)C[C@H](NC(=O)OC(C)(C)C)[C@H]4O[C@H]4O[C@H](CNC(=O)OC(C)(C)C)[C@@H](O)C[C@H]4NC(=O)OC(C)(C)C)nn3)[C@@H](O[C@H]3O[C@H](CO)[C@@H](O)[C@H](NC(=O)OC(C)(C)C)[C@H]3O)[C@H](NC(=O)OC(C)(C)C)C[C@@H]2NC(=O)OC(C)(C)C)[C@H](NC(=O)OC(C)(C)C)C[C@@H]1O` [Compound 12a] was tested, and the potentiation of novobiocin [1] was “did not potentiate”.

Work on `C[C@@H](O)[C@H]1C(=O)N2C(C(=O)O)=C(SCCN=CN)C[C@H]12` [Imipenem, reference compound] yielded an MIC Alone [1] of 4 µg/mL, an MIC of IPM alone ([1]; PA 259-96918) of 64 µg/mL and an MIC of IPM alone ([1]; PA 260-97103) of 16 µg/mL. It also gave an MIC of IPM alone ([1]; PA 262-101856) of 32 µg/mL, an MIC of IPM alone ([1]; PA 264-104354) of 16 µg/mL and an MIC of IPM alone ([1]; PA 86052) of 32 µg/mL. The MIC of IPM alone ([1]; PA 88949) was 64 µg/mL, the MIC of IPM alone ([1]; PA 91433) was 8 µg/mL and the MIC of IPM alone ([1]; PA 100036) was 8 µg/mL. The MIC of IPM alone ([1]; PA 101243) was 8 µg/mL, the MIC of IPM alone ([1]; PA 101885) was 4 µg/mL and the MIC of IPM alone ([1]; PA 107092) was 64 µg/mL. For the same compound, the MIC of IPM alone ([1]; PA 108590) was 16 µg/mL, the MIC of IPM alone ([1]; PA 109084) was 16 µg/mL and the MIC of IPM alone ([1]; PA 114228) was 8 µg/mL. It also gave an MIC of IPM alone ([1]; PAO1) of 4 µg/mL, an MIC of IPM alone ([1]; PAO200 (efflux-deficient)) of 4 µg/mL and an MIC of IPM alone ([1]; PAO750 (efflux-deficient)) of 4 µg/mL.

With `CN(C)c1ccc(O)c2c1C[C@H]1C[C@H]3[C@H](N(C)C)C(O)=C(C(N)=O)C(=O)[C@@]3(O)C(O)=C1C2=O` [Minocycline] the MIC [2, 3] was 0.125 µg/mL, the MIC [2, 4] was 0.5 µg/mL (≈ 1.09 µM) and the MIC [2, 5] was < 0.031 µg/mL. The MIC [2, 6] was 0.125 µg/mL (≈ 0.273 µM).

In the case of `CCN1CCN(C(=O)N[C@@H](C(=O)N[C@@H]2C(=O)N3[C@@H]2SC(C)(C)[C@@H]3C(=O)O)c2ccccc2)C(=O)C1=O` [Piperacillin, reference compound], the MIC Alone [1] is reported as 8 µg/mL.

In the case of `CO[C@H]1/C=C/O[C@@]2(C)Oc3c(C)c(O)c4c(O)c(c(/C=N/N5CCN(C)CC5)c(O)c4c3C2=O)NC(=O)/C(C)=C\C=C\[C@H](C)[C@H](O)[C@@H](C)[C@@H](O)[C@@H](C)[C@H](OC(C)=O)[C@@H]1C` [Rifampicin], the MIC [2, 3] is reported as 2 µg/mL, the MIC [2, 4] is reported as 2 µg/mL (≈ 2.43 µM) and the MIC [2, 5] is reported as < 0.031 µg/mL. The MIC [2, 6] was 2 µg/mL (≈ 2.43 µM).
